How the values were obtained:
Assay in all cases: KINOMEscan (ScanMAX) kinase profiling
Assay type in all cases: binding
[1] = molecular target: T1, panel of 468 kinases (Homo sapiens, UniProt O95835); details: LATS1; 1 μM; read-out: % control
T1 construct: purchased KINOMEscan (ScanMAX) service
T1 sequence (O95835 1-1130): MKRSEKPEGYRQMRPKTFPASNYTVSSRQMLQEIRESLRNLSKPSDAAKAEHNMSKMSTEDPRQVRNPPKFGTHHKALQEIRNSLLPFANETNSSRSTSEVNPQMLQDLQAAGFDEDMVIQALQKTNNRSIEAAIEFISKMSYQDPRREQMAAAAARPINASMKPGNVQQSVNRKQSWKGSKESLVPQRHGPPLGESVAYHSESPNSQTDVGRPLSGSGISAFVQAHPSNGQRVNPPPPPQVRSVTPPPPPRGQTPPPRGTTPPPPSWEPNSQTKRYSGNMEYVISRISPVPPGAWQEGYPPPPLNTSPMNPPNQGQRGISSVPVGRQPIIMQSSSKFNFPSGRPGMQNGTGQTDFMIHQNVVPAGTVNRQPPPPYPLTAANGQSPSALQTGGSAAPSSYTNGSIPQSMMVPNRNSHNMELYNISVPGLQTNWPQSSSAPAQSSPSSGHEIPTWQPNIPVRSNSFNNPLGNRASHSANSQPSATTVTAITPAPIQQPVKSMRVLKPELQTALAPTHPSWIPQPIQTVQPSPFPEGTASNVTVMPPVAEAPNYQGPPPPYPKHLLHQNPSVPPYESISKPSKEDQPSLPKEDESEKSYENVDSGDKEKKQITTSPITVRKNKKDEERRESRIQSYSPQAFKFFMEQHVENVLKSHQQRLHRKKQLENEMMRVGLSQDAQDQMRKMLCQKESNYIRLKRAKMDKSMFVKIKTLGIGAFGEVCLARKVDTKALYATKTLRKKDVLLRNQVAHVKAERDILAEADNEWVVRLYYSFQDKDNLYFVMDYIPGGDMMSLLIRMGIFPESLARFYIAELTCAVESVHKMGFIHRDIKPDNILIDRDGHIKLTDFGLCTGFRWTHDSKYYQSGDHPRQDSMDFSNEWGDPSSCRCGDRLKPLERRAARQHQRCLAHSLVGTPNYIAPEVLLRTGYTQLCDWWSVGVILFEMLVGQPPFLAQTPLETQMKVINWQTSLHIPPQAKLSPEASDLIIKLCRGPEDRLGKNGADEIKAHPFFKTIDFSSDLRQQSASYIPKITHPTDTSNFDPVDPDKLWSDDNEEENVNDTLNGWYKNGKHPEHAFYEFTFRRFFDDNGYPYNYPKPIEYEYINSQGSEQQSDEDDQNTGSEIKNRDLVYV

[2] = molecular target: T2, panel of 468 kinases (Homo sapiens, UniProt P21709); details: EPHA1; 1 μM; read-out: % control
T2 construct: purchased KINOMEscan (ScanMAX) service
T2 sequence (P21709 26-976): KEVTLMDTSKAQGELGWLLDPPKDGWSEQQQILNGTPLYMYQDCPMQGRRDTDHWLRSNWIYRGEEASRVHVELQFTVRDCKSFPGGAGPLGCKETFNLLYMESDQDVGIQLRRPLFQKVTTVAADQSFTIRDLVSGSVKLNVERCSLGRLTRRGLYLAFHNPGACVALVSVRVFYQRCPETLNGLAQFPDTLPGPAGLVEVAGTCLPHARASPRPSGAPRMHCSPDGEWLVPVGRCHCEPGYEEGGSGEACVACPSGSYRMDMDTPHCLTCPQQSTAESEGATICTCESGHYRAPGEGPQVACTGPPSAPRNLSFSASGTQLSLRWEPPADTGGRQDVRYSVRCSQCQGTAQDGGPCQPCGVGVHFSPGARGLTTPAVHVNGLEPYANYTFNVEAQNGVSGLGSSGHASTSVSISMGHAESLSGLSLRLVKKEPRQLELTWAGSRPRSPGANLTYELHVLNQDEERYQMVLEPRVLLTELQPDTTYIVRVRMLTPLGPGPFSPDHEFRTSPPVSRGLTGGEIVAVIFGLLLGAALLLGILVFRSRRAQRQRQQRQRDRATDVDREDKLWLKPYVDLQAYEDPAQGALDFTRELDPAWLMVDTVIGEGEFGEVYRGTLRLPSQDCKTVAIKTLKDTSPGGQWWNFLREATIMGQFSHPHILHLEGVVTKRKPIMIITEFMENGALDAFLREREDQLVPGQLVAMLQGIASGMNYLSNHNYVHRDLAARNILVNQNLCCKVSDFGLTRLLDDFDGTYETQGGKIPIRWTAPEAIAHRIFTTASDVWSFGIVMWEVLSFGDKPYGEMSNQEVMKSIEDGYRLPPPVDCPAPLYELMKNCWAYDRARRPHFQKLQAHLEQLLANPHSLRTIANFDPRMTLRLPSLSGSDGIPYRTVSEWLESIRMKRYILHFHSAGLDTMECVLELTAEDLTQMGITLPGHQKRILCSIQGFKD

[3] = molecular target: T3, panel of 468 kinases (Homo sapiens, UniProt P46734); details: MEK3; 1 μM; read-out: % control
T3 construct: purchased KINOMEscan (ScanMAX) service
T3 sequence (P46734 1-347): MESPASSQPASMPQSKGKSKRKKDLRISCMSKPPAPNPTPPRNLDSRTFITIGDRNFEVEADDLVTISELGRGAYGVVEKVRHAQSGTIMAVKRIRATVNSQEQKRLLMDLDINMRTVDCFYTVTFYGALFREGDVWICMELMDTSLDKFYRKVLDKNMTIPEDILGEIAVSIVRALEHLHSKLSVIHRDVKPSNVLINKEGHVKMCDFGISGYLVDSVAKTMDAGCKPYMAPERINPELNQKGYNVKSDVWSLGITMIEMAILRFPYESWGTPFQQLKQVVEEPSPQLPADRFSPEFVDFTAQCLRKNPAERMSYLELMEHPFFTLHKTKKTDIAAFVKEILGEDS

[4] = molecular target: T4, panel of 468 kinases (Homo sapiens, UniProt Q8TDR2); details: STK35; 1 μM; read-out: % control
T4 construct: purchased KINOMEscan (ScanMAX) service
T4 sequence (Q8TDR2 whole entry): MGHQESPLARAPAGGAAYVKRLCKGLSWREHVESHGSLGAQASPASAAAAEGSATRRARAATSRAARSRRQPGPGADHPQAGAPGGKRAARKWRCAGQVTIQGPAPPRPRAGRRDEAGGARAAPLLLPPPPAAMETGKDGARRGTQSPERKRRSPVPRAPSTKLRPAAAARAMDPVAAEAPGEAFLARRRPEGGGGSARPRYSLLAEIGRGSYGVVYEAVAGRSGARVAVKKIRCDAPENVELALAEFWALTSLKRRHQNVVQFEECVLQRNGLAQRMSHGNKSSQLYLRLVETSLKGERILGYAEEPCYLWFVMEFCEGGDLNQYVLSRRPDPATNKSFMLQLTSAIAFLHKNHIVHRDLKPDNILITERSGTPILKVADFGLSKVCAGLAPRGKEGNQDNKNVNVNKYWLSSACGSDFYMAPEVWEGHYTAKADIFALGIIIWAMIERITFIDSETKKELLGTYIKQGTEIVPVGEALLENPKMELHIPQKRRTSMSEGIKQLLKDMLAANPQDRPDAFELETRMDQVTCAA

[5] = molecular target: T5, panel of 468 kinases (Homo sapiens, UniProt Q96SB4); details: SRPK1; 1 μM; read-out: % control
T5 construct: purchased KINOMEscan (ScanMAX) service
T5 sequence (Q96SB4 whole entry): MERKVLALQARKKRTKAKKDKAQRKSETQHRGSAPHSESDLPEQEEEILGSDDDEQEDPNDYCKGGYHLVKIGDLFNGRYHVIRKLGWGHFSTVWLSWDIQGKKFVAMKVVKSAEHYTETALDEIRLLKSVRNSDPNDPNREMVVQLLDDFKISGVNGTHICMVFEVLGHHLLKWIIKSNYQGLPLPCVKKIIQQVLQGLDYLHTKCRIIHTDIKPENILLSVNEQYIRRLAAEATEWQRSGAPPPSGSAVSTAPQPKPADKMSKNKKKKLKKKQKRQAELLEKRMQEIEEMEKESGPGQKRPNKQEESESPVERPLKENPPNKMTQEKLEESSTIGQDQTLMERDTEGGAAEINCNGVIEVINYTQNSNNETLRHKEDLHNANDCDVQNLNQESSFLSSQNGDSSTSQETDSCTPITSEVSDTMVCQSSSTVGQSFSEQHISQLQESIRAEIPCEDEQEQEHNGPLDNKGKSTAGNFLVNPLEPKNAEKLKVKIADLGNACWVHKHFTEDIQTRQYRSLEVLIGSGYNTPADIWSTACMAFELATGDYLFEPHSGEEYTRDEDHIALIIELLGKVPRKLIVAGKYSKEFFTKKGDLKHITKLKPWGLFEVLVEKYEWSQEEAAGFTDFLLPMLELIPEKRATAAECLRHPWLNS

[6] = molecular target: T6, panel of 468 kinases (Homo sapiens, UniProt O43683); details: BUB1; 1 μM; read-out: % control
T6 construct: purchased KINOMEscan (ScanMAX) service
T6 sequence (O43683 whole entry): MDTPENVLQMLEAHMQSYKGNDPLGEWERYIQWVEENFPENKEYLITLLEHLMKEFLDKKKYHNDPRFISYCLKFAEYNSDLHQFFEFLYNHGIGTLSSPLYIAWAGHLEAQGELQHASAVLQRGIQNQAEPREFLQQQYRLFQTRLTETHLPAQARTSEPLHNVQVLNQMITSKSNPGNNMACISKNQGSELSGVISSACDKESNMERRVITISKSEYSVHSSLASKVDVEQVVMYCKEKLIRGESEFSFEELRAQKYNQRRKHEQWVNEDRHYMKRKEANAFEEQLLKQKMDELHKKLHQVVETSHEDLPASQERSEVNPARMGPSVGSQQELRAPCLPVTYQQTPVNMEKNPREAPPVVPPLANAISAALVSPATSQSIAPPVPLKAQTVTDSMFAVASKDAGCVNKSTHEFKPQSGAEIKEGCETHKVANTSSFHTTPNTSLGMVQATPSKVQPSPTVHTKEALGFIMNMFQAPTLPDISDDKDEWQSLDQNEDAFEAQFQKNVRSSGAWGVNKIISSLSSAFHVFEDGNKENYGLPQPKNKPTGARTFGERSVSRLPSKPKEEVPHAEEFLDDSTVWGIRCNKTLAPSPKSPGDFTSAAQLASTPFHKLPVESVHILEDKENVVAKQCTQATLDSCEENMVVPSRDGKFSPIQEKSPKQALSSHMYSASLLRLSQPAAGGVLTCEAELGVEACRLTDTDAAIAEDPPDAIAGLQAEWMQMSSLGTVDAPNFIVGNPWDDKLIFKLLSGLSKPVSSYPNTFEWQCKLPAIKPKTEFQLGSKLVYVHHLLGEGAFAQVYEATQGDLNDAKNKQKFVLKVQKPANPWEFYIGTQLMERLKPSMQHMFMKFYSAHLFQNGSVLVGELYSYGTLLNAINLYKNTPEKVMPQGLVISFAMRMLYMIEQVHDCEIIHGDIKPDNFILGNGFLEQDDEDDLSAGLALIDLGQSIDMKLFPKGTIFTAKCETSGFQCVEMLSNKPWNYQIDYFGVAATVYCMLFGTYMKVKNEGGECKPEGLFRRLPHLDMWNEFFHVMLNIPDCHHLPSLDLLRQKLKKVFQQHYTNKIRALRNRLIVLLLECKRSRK

Q: Which results are given for `CNc1nc(Nc2ccc(S(=O)(=O)N3CCC(N4CCOCC4)CC3)cc2OC)nc2[nH]cc(Cl)c12` [Compound 12, 5-chloro-N2-(2-methoxy-4-((4-morpholinopiperidin-1-yl)sulfonyl)phenyl)-N4-methyl-7H-pyrrolo[2,3-d]pyrimidine-2,4-diamine]?
A: remaining binding at 1 µM [1]: 100%; remaining binding at 1 µM [2]: 100%; remaining binding at 1 µM [3]: 26%; remaining binding at 1 µM [4]: 100%; remaining binding at 1 µM [5]: 96%; remaining binding at 1 µM [6]: 60%

Q: With `CNc1nc(Nc2ccc(P3(=O)CCN(C4CCOCC4)CC3)cc2OC)nc2[nH]cc(Cl)c12` [Compound 77, 4-(4-((5-chloro-4-(methylamino)-7H-pyrrolo[2,3-d]pyrimidin-2-yl)amino)-3-methoxyphenyl)-1-(tetrahydro-2H-pyran-4-yl)-1,4-azaphosphinane 4-oxide] as the molecule, how does the remaining binding at 1 µM [1] read?
A: 100%

Q: And the remaining binding at 1 µM [2]?
A: 100%

Q: And the remaining binding at 1 µM [3]?
A: 9.4%

Q: And the remaining binding at 1 µM [4]?
A: 100%

Q: What about the remaining binding at 1 µM [5] of the same molecule?
A: 96%

Q: What about the remaining binding at 1 µM [6] of the same molecule?
A: 61%

Q: `CNc1nc(Nc2ccc(C(=O)N3CCC(N4CCOCC4)CC3)c3c2OCO3)nc2[nH]cc(Cl)c12` [Compound 75, (7-((5-chloro-4-(methylamino)-7H-pyrrolo[2,3-d]pyrimidin-2-yl)amino)benzo[d][1,3]dioxol-4-yl)(4-morpholinopiperidin-1-yl)methanone] was tested. Which remaining binding at 1 µM [1] did it give?
A: 100%

Q: What about the remaining binding at 1 µM [2] of the same molecule?
A: 100%

Q: And the remaining binding at 1 µM [3]?
A: 2.4%

Q: What about the remaining binding at 1 µM [4] of the same molecule?
A: 100%

Q: What about the remaining binding at 1 µM [5] of the same molecule?
A: 53%

Q: And the remaining binding at 1 µM [6]?
A: 49%
